Assay results from ChEMBL document CHEMBL1201862, “PubChem BioAssay data set” (2004).
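Each compound was tested at five concentrations against cells in 96-well plates for 48 hours. The concentration for 50% growth inhibition is given as GI50.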 Activity calls are given as the source filed them. No stated cut-off is given here; in the data, active = GI50 up to about 1.1 µM and inactive = higher.

Legend:
Experiment in all cases: NCI-60 cell line screen, 48 h
LOX IMVI = tested on: LOX IMVI
SNB-75 = tested on: SNB-75
A549 = tested on: A549
SNB-78 = tested on: SNB-78
HT-29 = tested on: HT-29
SR = tested on: SR
SF-295 = tested on: SF-295
MOLT-4 = tested on: MOLT-4
M19-MEL = tested on: M19-MEL
LXFL 529 = tested on: LXFL 529
SF-268 = tested on: SF-268
SW-620 = tested on: SW-620
UO-31 = tested on: UO-31
OVCAR-3 = tested on: OVCAR-3
T47D = tested on: T47D
ACHN = tested on: ACHN
UACC-62 = tested on: UACC-62
NCI-H23 = tested on: NCI-H23
U-251 = tested on: U-251
MDA-N = tested on: MDA-N
SN12C = tested on: SN12C
KM12 = tested on: KM12
K562 = tested on: K562
UACC-257 = tested on: UACC-257
SK-MEL-28 = tested on: SK-MEL-28
Hs-578T = tested on: Hs-578T
M14 = tested on: M14
NCI-H522 = tested on: NCI-H522
786-0 = tested on: 786-0
KM-20L2 = tested on: KM-20L2
OVCAR-4 = tested on: OVCAR-4
DMS-273 = tested on: DMS-273
HCT-15 = tested on: HCT-15
BT-549 = tested on: BT-549
RXF 393 = tested on: RXF 393
TK-10 = tested on: TK-10
MCF7 = tested on: MCF7
SK-MEL-2 = tested on: SK-MEL-2
HL-60 = tested on: HL-60
HOP-92 = tested on: HOP-92
DLD-1 = tested on: DLD-1
HOP-18 = tested on: HOP-18
CAKI-1 = tested on: CAKI-1
OVCAR-5 = tested on: OVCAR-5
SK-MEL-5 = tested on: SK-MEL-5
HCT-116 = tested on: HCT-116
COLO 205 = tested on: COLO 205
PC-3 = tested on: PC-3
NCI-H226 = tested on: NCI-H226
CCRF-CEM = tested on: CCRF-CEM
DMS-114 = tested on: DMS-114
SF-539 = tested on: SF-539
EKVX = tested on: EKVX
MDA-MB-435 = tested on: MDA-MB-435
OVCAR-8 = tested on: OVCAR-8
A498 = tested on: A498
NCI/ADR-RES = tested on: NCI/ADR-RES
MDA-MB-231 = tested on: MDA-MB-231
RPMI-8226 = tested on: RPMI-8226
SK-OV-3 = tested on: SK-OV-3
HOP-62 = tested on: HOP-62
DU-145 = tested on: DU-145
IGROV-1 = tested on: IGROV-1
HCC 2998 = tested on: HCC 2998
Malme-3M = tested on: Malme-3M
RXF 631 = tested on: RXF 631
NCI-H460 = tested on: NCI-H460
SNB-19 = tested on: SNB-19
XF498 = tested on: XF498

Measured: GI50

O=[N+]([O-])C1(CO)COC2(OC1)c1ccccc1-c1ccccc12
inactive: LOX IMVI 45.6 µM | SNB-75 > 100 µM | A549 > 100 µM | SNB-78 > 100 µM | HT-29 > 63.5 µM | SR 40.6 µM | SF-295 > 100 µM | MOLT-4 53.2 µM | M19-MEL > 100 µM | LXFL 529 > 100 µM | SF-268 52.8 µM | SW-620 21.6 µM | UO-31 > 100 µM | OVCAR-3 > 73.5 µM | T47D 28.7 µM | ACHN > 81.3 µM | UACC-62 > 100 µM | NCI-H23 > 100 µM | U-251 > 77.8 µM | MDA-N > 64 µM | SN12C 70.1 µM | KM12 > 100 µM | K562 64.7 µM | UACC-257 79.8 µM | SK-MEL-28 > 100 µM | Hs-578T > 100 µM | M14 54.7 µM | NCI-H522 20 µM | 786-0 63.8 µM | KM-20L2 > 100 µM | OVCAR-4 > 100 µM | DMS-273 > 100 µM | BT-549 > 53.6 µM | RXF 393 > 55.2 µM | TK-10 > 100 µM | MCF7 48 µM | SK-MEL-2 > 100 µM | HL-60 21.9 µM | HOP-92 > 71.1 µM | DLD-1 36 µM | HOP-18 > 100 µM | CAKI-1 > 100 µM | OVCAR-5 > 100 µM | SK-MEL-5 > 100 µM | HCT-116 35.3 µM | COLO 205 40.5 µM | PC-3 > 74.8 µM | NCI-H226 > 100 µM | CCRF-CEM 25.2 µM | DMS-114 > 100 µM | SF-539 > 69.3 µM | EKVX > 100 µM | MDA-MB-435 > 100 µM | OVCAR-8 > 78.3 µM | A498 > 100 µM | NCI/ADR-RES > 48.3 µM | MDA-MB-231 > 100 µM | RPMI-8226 23.8 µM | SK-OV-3 > 100 µM | HOP-62 > 100 µM | DU-145 39.4 µM | IGROV-1 > 89.1 µM | HCC 2998 > 100 µM | Malme-3M 48.5 µM | RXF 631 > 100 µM | NCI-H460 > 77.4 µM | SNB-19 > 100 µM
59.4 µM: HCT-15

Cc1c2ccccc2c(CO)c2cc(F)c3ccccc3c12
inactive: LOX IMVI 17.1 µM | SNB-75 29.9 µM | A549 26.6 µM | SNB-78 24 µM | HT-29 19.1 µM | SR 27 µM | SF-295 21.9 µM | MOLT-4 14.8 µM | M19-MEL 35.8 µM | SF-268 24.5 µM | SW-620 37.5 µM | UO-31 40 µM | OVCAR-3 26.9 µM | ACHN 19.5 µM | UACC-62 27.2 µM | NCI-H23 36.5 µM | U-251 21.3 µM | SN12C 17.3 µM | KM12 18.8 µM | K562 23.5 µM | UACC-257 47.3 µM | SK-MEL-28 44 µM | NCI-H522 12.9 µM | KM-20L2 21.1 µM | OVCAR-4 23.4 µM | DMS-273 14.8 µM | RXF 393 24.7 µM | TK-10 37.4 µM | SK-MEL-2 18.5 µM | HL-60 17.6 µM | HOP-92 32.4 µM | DLD-1 14.8 µM | HOP-18 28.5 µM | XF498 22.1 µM | CAKI-1 25.4 µM | OVCAR-5 28 µM | SK-MEL-5 43.9 µM | HCT-116 19.3 µM | COLO 205 15.6 µM | NCI-H226 42 µM | CCRF-CEM 22.3 µM | DMS-114 18.1 µM | SF-539 30.6 µM | EKVX 29.9 µM | OVCAR-8 19.6 µM | A498 38.2 µM | SK-OV-3 29 µM | HOP-62 31.5 µM | IGROV-1 20.7 µM | HCC 2998 50.6 µM | Malme-3M 53.8 µM | RXF 631 16.7 µM | SNB-19 30 µM
